The source of these data is PMC12382740, “In Vitro and In Vivo Characterization of Novel Cathelicidin-Based Peptides with Antimicrobial Activity Against Pseudomonas aeruginosa” (Antibiotics, 2025).

Usually MIC stands for the smallest concentration in the dilution series that meets the test's criterion for growth inhibition. The low end stands for inhibition by little substance, the high end for a need for much substance. What is called IC50 is the point on the concentration scale where inhibition reaches its midpoint. A word on the MIC50: it is the lowest concentration that inhibits either 50% of growth or 50% of the strains tested, depending on the study. Usually MIC90 stands for an inhibitory concentration at the 90% level, which refers to growth in some studies and to a panel of isolates in others. Low readings indicate greater potency, high ones weaker potency.

Like-named read-outs stand apart in the source and are kept apart here. Square brackets hold non-standard residues; d marks the D form. Ends that are not written are not given here. Peptide text beside a SMILES is read from it.

Data set [1] deals with P. aeruginosa Strain ATCC 121110. The class given is cell-based, Pseudomonas aeruginosa. Here is the method: (§1) The antimicrobial activity of the peptides was tested against a collection of P. aeruginosa, selected by their resistance or susceptibility to colistin and/or classified as MDR strains. The origin of the strains was either clinical, relevant to the current clinical situation, or commercial strains belonging to the American Type Culture Collection (ATCC, Manassas, VA, USA), which complemented the collection for comparison and control. For the initial activity screening of the 17 peptides, we tested them against P. aeruginosa ATCC strains 1211007 and 1211101. Both strains are multidrug-resistant; however, the key difference is that strain 1211007 is susceptible to colistin, whereas strain 1211101 is resistant to colistin.
(§2) Minimum Inhibitory Concentration (MIC) of the antimicrobial agents against bacterial strains was obtained through broth microdilution assays following a protocol based on the Clinical & Laboratory Standards Institute’s guidelines. Modifications regarding microplate material and broth were included when testing the peptides’ activity and are detailed below. Colistin MICs were obtained following recommendations of the joint CLSI-EUCAST Polymyxin Breakpoints Working Group using Cation Adjusted Mueller-Hinton Broth (90922, 500 g Sigma-Aldrich®, St. Louis, MO, USA), and strains Escherichia coli 13846 (mcr-1 positive) and P. aeruginosa ATCC 27853 were used as quality controls in all assays. Bacteria were cultured in Columbia Agar plates (Columbia Agar with 5% Sheep Blood 90 mm Stacker plates, Becton Dickinson, Franklin Lakes, NJ, USA) and incubated overnight at 37 °C. Polypropylene round-bottomed 96-well plates (-96-well Polypropylene Storage Microplates, 267334, Thermo Fischer Scientific, Waltham, MA, USA) were used to prevent peptide binding to plate walls. AST broth (BD Phoenix™ AST broth, 8 mL, 246003, Becton Dickinson, Franklin Lakes, NJ, USA) was used when testing the peptides’ activity. […] Three biological and technical replicates were performed per strain.

In data set [2] the test system is P. aeruginosa Strain 121007. The class given is cell-based, Pseudomonas aeruginosa. Here is the method: as §1, §2
Data set [3] relates to human erythrocytes. Put plainly: Hemolysis assay. The class given is cell-based. The note with it: red cells of human, 4 h. Here is the method: Commercially available human blood (IWB1K2E10ML, Innovative Research Inc., Novi, MI, USA) was used to produce a 50% haematocrit solution by mixing at 1:1 with PBS 1× (P5493, 1 L, Sigma, St. Louis, MO, USA). Three consecutive PBS 1× washes plus centrifugation at 2600 rpm for 10 min steps were performed. Finally, a 2% erythrocyte solution was prepared in PBS 1× and chilled on ice until used. Polypropylene plates were filled with 50 µL PBS 1× per well for the samples and 50 µL 2% Triton X-100 (TX-100, 9002-93-1, 100 mL, Sigma, St. Louis, MO, USA) for the hemolysis controls. A solution at 4× final concentration of the assay of each peptide was prepared in PBS and 50 µL were added to the first column of each plate, followed by serial dilutions in the microplate. Then, 50 µL of the 2% erythrocyte solution was added to each plate. […] controls consisted in a 1:1 mix of PBS 1× and erythrocytes at 2%. Plates were incubated at 37 °C for 4 h and then centrifuged at 1500 rpm for 5 min. Eighty µL were extracted from the supernatant of each well carefully and transferred to a polystyrene flat bottom plate for reading and read at 450 nm in an Epoch microplate spectrophotometer (Epoch™, BioTek, Winooski, VT, USA).
The therapeutic index is a widely accepted parameter to represent the specificity of antimicrobial peptides for prokaryotic versus eukaryotic cells. It is calculated by the ratio of HC50 (hemolytic activity) and MIC (antimicrobial activity); thus, larger values of therapeutic index indicate greater specificity for prokaryotic cells.

Data set [4] deals with Colistin-Resistant P. aeruginosa. The class given is cell-based, Pseudomonas aeruginosa. The note with it: Colistin-Resistant. Here is the method: as §1, §2
Data set [5] concerns P. aeruginosa strain panel. The class given is cell-based, Pseudomonas aeruginosa. The note with it: strain panel. Here is the method:
as §1, §2

In data set [6] the test system is Colistin Susceptible P. aeruginosa. The class given is cell-based, Pseudomonas aeruginosa. The note with it: Colistin Susceptible. Here is the method: as §1, §2
Data set [7] has as its system HeLa cells. The class given is cell-based, human. To be noted: 24 h. Here is the method: (§3) Cell viability assays were performed against HeLa and A549 cells. Cells were seeded in Corning 96-well microplates at 2 × 10^3 cells/well and 5 × 10^3 cells/well and incubated for 24 h at 37 °C. Then, cells were treated with peptides dissolved in Dulbecco’s Modified Eagle’s Medium for 24 h; peptide concentration range 0.1–100 µM. The peptide solution was then removed, and fresh medium was added to the cells. Finally, 50 µL of activated-XTT solution was added and incubated for 4 h at 37 °C. A PowerWave X reader (BioTek, Winooski, VT, USA) was used to measure absorbance at 450 nm. Cell viability was calculated through the ratio of the absorbance of peptide-treated cells over the absorbance of untreated cells. Triplicates were run for each experiment.

In data set [8] the test system is A549 cells. The class given is cell-based, human. The note with it: 24 h. Here is the method:
as §3

The nature of data set [9]: In vivo toxicity study, topical. Further details: species or system BALB/C mice. Here is the method: Immunocompetent female BALB/C mice weighing 20 g (7–9 weeks old) were used (Charles River laboratories, St-Germain-Nuelles, France). Animals were murine pathogen-free and were assessed for genetic authenticity. The study followed the Guide for the Care and Use of Laboratory Animals. The experiments followed the 2010/63/EU directive on the protection of animals used for scientific research. Experiments were approved by the Committee on the Ethics of Animal Experiments of the Virgen del Rocío University Hospital and the Andalusian Ministry of Agricultura, Pesca, Agua y Desarrollo Rural, Junta de Andalucía, Sevilla, Spain (11-09-15-322).
CAP-18 and D-CAP-18 peptides were evaluated in five healthy female BALB/C mice at the dosage and regimen schedule to be used in the efficacy studies. The following indicative signs of acute toxicity were assessed during seven days: reduced water (dehydration)/food intake, isolation, self-mutilation, tremors/spasms, dyspnea, physical activity (increased/reduced), chromo-dacryorrhea, dermal responses, including erythema/oedema/redness/discoloration/necrosis), muscle stiffness, piloerection, teeth grinding, and weight loss.

Setting [10] is: Strain ATCC 121110, value in brackets.
The mark [11] stands for this setting: Strain 121007, value in brackets.

For `CC[C@@H](C)[C@@H](NC(=O)CNC(=O)[C@@H](CCC(N)=O)NC(=O)[C@@H](CCCCN)NC(=O)[C@H](NC(=O)[C@@H](CCC(N)=O)NC(=O)CNC(=O)[C@@H](CC(C)C)NC(=O)[C@@H](CC(C)C)NC(=O)[C@H]1CCCN1C(=O)[C@@H](CCCCN)NC(=O)[C@H](N)CC(C)C)[C@H](C)CC)C(=O)N[C@H](CCCCN)C(=O)N[C@H](CCCCN)C(=O)N[C@H](CC(C)C)C(=O)N[C@H](CCCCN)C(=O)N[C@H](CCC(=O)O)C(=O)N[C@H](CCCCN)C(=O)N[C@@H](C(=O)N[C@H](CCCCN)C(=O)N[C@H](CC(N)=O)C(=O)N[C@H](CCCNC(=N)N)C(=O)N[C@H](Cc1ccccc1)C(=O)N[C@H](CCCCN)C(=O)N[C@H](CCCNC(=N)N)C(=O)N[C@H](CC(C)C)C(=O)N[C@H](CCCNC(=N)N)C(=O)N[C@H](CCCCN)C(=O)N[C@H](CCCNC(=N)N)C(=O)N[C@H](CC(C)C)C(=O)NCC(=O)O)[C@H](C)CC` [R-CAP-18_31, Lkpllgqikqgikklkekiknrfkrlrkrlg] (H-[dL][dK][dP][dL][dL]G[dQ][dI][dK][dQ]G[dI][dK][dK][dL][dK][dE][dK][dI][dK][dN][dR][dF][dK][dR][dL][dR][dK][dR][dL]G-OH), the MIC in [1] (Strain ATCC 121110) came out at 4 µg/mL; in data set [1] (setting [10]), 1.1 µM; in data set [2] (Strain 121007) it was 0.5 µg/mL; in data set [2] (setting [11]) it was 0.1 µM.

Turning to `CC[C@@H](C)[C@@H](NC(=O)CNC(=O)[C@@H](CCC(N)=O)NC(=O)[C@@H](CCCCN)NC(=O)[C@H](NC(=O)[C@@H](CCC(N)=O)NC(=O)CNC(=O)[C@@H](CC(C)C)NC(=O)[C@@H](CC(C)C)NC(=O)[C@H]1CCCN1C(=O)[C@@H](CCCCN)NC(=O)[C@@H](CC(C)C)NC(=O)[C@@H](C)NC(=O)[C@H]1CCCN1C(=O)[C@@H](CCCNC(=N)N)NC(=O)[C@H](NC(=O)[C@@H](CC(=O)O)NC(=O)[C@H](N)Cc1ccc(O)cc1)[C@H](C)O)[C@H](C)CC)C(=O)N[C@H](CCCCN)C(=O)N[C@H](CCCCN)C(=O)N[C@H](CC(C)C)C(=O)N[C@H](CCCCN)C(=O)N[C@H](CCC(=O)O)C(=O)N[C@H](CCCCN)C(=O)N[C@@H](C(=O)N[C@H](CCCCN)C(=O)N[C@H](CC(N)=O)C(=O)N[C@H](CCCNC(=N)N)C(=O)N[C@H](Cc1ccccc1)C(=O)N[C@H](CCCCN)C(=O)N[C@H](CCCNC(=N)N)C(=O)N[C@H](CC(C)C)C(=O)N[C@H](CCCNC(=N)N)C(=O)N[C@H](CCCCN)C(=O)N[C@H](CCCNC(=N)N)C(=O)N[C@H](CC(C)C)C(=O)NCC(=O)O)[C@H](C)CC` [R-CAP-18, Ydtrpalkpllgqikqgikklkekiknrfkrlrkrlg] (H-[dY][dD][dT][dR][dP][dA][dL][dK][dP][dL][dL]G[dQ][dI][dK][dQ]G[dI][dK][dK][dL][dK][dE][dK][dI][dK][dN][dR][dF][dK][dR][dL][dR][dK][dR][dL]G-OH), the MIC in [1] (Strain ATCC 121110) is 32 µg/mL; in [1] (setting [10]), 7.2 µM; in [2] (Strain 121007), 2 µg/mL; in data set [2] (setting [11]), 0.4 µM.

Take H-FRNKIKEKLKKIGQKIQG-OH [CAP-18_18]: the MIC was greater than 64 µg/mL in [1] (ATCC 121110), greater than 30 µM in [1] (setting [10]), greater than 64 µg/mL in [2] (Strain 121007) and greater than 30 µM in data set [2] (setting [11]).

Turning to H-GLRKRLRKFRNKIKEKLKKIG-OH [CAP-18_21], the MIC came to 32 µg/mL in data set [1] (ATCC 121110), 12 µM in data set [1] (setting [10]), 32 µg/mL in [2] (Strain 121007) and 12 µM in data set [2] (setting [11]).

“GLRKRLRKFRNKIKEKLKKIGQKIQGLLPKLAPRTDY [CAP-18]”: the results for the IC50 in data set [3], in data set [7] and in data set [8] were 35.7 µM, 9.12 µM and 0.87 µM, respectively. The MIC in [1] (ATCC 121110) is less than 0.125 µg/mL; in data set [4], 4 µg/mL; in data set [6], 8 µg/mL. In addition, the MIC50 in data set [5] came to 0.5 µg/mL. This molecule also gave an MIC90 in data set [5] of 4 µg/mL. Moreover, in data set [9] (after 7 days of observation after the treatment), the “mice final weight (median ± SD)” value is recorded as 19.1 ± 0.55 grams. Moreover, the “dermal responses and body weight loss” value in data set [9] (healthy female BALB/C mice, during the application) is “no dermal responses, including erythema/oedema, nor body weight loss were observed”. Further, the “indicative signs of acute toxicity” value in [9] (healthy female BALB/C mice, topical, efficacy dosage, 7 days observation) is on record as “None of the 11 indicative signs of acute toxicity were observed”.

In the case of “H-FRNKIKEKLKKIGQKIQGLLPKL-OH [CAP-18_23]”, the MIC in data set [1] (ATCC 121110) was greater than 32 µg/mL; in [1] (setting [10]) it was greater than 12 µM; in data set [2] (Strain 121007), greater than 64 µg/mL; in data set [2] (setting [11]) it was greater than 24 µM.

Take H-IKEKLKKIGQKIQGLLPKL-OH [CAP-18_19]: the MIC in [1] (ATCC 121110) is greater than 64 µg/mL; in data set [1] (setting [10]), greater than 29 µM; in data set [2] (Strain 121007), greater than 64 µg/mL; in data set [2] (setting [11]) it was greater than 29 µM.

Turning to H-IKEKLKKIGQKIQG-OH [CAP-18_14], the figures for the MIC in data set [1] (ATCC 121110), in data set [1] (setting [10]) and in data set [2] (Strain 121007) were greater than 64 µg/mL, greater than 40 µM and greater than 64 µg/mL, respectively.
